Source: ChEMBL document CHEMBL5715945 (Cancer Biol Ther, 2010)
Active and inactive are the calls of the source. No cut-off for these calls is given here.

How the values were obtained:
[1] = tested on: 4T1; assay: Antiproliferative activity against mouse 4T1 cells cultured as 3D spheroids assessed as fold reduction in average spheroid size at 0.1 uM measured after 72 hrs by phase contrast microscopic analysis; assay type: functional
[2] = target: Serine/threonine-protein kinase Chk1 (Homo sapiens) (UniProt O14757); assay: Inhibition of CHK1 (unknown origin) at 1 uM relative to control; values are per cent of control
Serine/threonine-protein kinase Chk1 (Homo sapiens), sequence (O14757 whole entry): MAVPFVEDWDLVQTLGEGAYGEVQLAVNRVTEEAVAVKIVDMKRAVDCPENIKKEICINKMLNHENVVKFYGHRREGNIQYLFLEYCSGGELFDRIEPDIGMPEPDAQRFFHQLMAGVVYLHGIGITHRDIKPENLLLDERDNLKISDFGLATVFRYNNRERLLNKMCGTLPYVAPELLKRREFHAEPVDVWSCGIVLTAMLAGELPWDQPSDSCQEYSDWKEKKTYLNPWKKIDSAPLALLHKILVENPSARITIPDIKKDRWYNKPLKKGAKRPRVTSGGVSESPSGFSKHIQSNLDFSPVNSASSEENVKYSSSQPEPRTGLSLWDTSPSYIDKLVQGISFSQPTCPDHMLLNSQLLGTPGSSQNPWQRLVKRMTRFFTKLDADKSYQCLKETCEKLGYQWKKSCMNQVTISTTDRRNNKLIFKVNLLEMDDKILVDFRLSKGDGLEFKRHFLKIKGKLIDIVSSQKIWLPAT

[3] = tested on: 4T1; assay: Induction of cell cycle arrest in mouse 4T1 adherent cells assessed as accumulation at G0/G1 phase at 1 uM measured after 72 hrs by PI staining based flow cytometry analysis (reference value: 76.8%); assay type: functional
[4] = target: Protein kinase C alpha type (Homo sapiens) (UniProt P17252); assay: Inhibition of PKCa (unknown origin) at 0.1 uM relative to control; values are per cent of control
[5] = tested on: ID8; assay: Antitumor activity against mouse ID8 suspended cells assessed as reduction in cell viability at 0.1 to 1 uM measured after 15 days by trypan blue staining based analysis; assay type: functional; details: dose 0.1-1 µM, time 15.0 day
[6] = target: Activated CDC42 kinase 1 (Homo sapiens) (UniProt Q07912); assay: Inhibition of ACK1 (unknown origin) at 1 uM relative to control; values are per cent of control
[7] = target: Insulin-like growth factor 1 receptor (Homo sapiens) (UniProt P08069); assay: Inhibition of IGF-1R (unknown origin) at 1 uM relative to control; values are per cent of control
[8] = target: Casein kinase I isoform gamma-1 (Homo sapiens) (UniProt Q9HCP0); assay: Inhibition of CK1g1 (unknown origin) at 0.1 uM relative to control; values are per cent of control
Casein kinase I isoform gamma-1 (Homo sapiens), sequence (Q9HCP0 whole entry, looked up, canonical isoform): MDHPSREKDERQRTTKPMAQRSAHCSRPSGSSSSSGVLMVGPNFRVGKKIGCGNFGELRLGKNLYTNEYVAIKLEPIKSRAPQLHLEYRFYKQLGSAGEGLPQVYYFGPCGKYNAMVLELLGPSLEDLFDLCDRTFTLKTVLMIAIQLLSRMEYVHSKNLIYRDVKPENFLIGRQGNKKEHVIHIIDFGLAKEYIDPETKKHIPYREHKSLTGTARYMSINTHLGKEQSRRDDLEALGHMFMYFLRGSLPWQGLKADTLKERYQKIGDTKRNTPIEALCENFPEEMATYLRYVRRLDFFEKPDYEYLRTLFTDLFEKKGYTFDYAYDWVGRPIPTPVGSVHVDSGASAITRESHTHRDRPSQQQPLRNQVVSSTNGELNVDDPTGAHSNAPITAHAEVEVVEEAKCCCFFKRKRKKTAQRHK

[9] = target: Serine/threonine-protein kinase Nek6 (Homo sapiens) (UniProt Q9HC98); assay: Inhibition of NEK6 (unknown origin) at 1 uM relative to control; values are per cent of control
[10] = target: ALK tyrosine kinase receptor (Homo sapiens) (UniProt Q9UM73); assay: Inhibition of ALK (unknown origin) at 1 uM relative to control; values are per cent of control
ALK tyrosine kinase receptor (Homo sapiens), sequence (Q9UM73 19-1620 limits assumed): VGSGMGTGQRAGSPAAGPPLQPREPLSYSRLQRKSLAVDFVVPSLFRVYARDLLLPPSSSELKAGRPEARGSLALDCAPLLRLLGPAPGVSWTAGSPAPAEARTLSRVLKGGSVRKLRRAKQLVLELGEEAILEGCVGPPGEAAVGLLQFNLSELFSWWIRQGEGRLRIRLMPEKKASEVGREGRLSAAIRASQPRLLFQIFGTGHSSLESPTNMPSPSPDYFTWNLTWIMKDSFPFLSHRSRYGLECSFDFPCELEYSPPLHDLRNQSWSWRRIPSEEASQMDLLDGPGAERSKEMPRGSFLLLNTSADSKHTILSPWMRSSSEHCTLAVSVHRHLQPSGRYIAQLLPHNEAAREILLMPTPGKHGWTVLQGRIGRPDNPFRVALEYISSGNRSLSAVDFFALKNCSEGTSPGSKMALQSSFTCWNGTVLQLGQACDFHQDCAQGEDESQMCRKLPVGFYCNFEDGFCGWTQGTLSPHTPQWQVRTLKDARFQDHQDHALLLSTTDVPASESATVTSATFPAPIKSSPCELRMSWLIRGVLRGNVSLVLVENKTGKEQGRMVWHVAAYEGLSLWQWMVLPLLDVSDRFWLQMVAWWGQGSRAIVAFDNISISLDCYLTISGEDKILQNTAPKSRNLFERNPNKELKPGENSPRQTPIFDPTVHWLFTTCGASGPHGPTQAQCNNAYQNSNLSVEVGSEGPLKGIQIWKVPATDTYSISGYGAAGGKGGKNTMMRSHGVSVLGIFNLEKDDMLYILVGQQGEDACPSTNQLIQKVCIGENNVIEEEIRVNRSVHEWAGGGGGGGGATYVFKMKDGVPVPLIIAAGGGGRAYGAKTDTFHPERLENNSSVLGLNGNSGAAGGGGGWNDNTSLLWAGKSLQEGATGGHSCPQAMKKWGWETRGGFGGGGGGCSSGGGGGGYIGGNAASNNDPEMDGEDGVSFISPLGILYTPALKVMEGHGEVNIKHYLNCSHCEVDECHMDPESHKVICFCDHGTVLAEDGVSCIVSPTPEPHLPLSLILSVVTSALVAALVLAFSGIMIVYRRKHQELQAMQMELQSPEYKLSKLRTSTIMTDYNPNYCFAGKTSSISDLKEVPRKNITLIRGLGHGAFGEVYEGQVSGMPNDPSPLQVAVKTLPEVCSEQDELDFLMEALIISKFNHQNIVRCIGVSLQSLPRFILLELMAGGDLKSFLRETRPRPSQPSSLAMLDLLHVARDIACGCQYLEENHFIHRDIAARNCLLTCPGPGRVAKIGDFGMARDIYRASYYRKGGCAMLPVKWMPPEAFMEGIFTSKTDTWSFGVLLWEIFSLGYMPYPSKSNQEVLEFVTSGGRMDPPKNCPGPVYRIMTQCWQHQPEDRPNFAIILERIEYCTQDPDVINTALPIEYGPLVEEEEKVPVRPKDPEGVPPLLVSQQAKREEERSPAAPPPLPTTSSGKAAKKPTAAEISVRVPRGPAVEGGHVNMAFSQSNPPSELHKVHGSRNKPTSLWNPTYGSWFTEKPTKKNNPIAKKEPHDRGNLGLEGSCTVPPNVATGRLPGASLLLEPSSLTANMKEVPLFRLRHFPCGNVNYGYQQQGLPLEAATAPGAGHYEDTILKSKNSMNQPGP

[11] = target: Proto-oncogene tyrosine-protein kinase receptor Ret (Homo sapiens) (UniProt P07949); assay: Inhibition of Ret (unknown origin) at 1 uM relative to control; values are per cent of control
Proto-oncogene tyrosine-protein kinase receptor Ret (Homo sapiens), sequence (P07949 whole entry): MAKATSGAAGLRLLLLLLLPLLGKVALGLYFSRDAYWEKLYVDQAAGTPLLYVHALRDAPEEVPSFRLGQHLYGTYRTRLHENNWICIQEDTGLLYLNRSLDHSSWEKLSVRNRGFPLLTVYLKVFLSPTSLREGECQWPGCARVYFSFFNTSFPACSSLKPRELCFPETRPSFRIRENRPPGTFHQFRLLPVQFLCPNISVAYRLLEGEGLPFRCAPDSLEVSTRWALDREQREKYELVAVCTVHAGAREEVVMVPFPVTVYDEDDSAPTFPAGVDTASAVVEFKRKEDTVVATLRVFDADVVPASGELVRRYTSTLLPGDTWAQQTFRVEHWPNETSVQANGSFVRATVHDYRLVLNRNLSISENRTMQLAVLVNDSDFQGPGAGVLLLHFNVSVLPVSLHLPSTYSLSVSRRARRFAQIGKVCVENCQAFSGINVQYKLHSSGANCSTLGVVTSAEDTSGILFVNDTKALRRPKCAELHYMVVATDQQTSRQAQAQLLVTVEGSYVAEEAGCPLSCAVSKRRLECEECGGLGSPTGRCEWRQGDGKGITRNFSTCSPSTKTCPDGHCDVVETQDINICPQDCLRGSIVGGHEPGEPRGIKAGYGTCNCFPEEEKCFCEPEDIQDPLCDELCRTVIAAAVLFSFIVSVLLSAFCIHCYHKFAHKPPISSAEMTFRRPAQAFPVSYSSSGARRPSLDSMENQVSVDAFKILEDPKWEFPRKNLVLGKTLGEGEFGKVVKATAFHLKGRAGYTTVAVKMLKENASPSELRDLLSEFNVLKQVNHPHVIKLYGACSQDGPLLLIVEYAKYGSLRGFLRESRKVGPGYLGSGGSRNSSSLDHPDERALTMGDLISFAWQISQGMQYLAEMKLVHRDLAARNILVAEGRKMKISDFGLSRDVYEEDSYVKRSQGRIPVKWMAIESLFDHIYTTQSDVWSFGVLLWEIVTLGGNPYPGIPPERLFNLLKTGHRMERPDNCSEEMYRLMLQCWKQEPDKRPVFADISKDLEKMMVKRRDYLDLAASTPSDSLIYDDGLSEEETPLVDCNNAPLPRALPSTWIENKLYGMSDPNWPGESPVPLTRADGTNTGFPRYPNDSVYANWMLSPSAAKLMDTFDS

[12] = tested on: ID8; assay: Antitumor activity against mouse ID8 suspended cells assessed as reduction in cell viability measured after 72 hrs by trypan blue staining based analysis; assay type: functional; details: dose 0.1 µM
[13] = tested on: 4T1; assay: Inhibition of colony formation in mouse 4T1 cells assessed as reduction in cell number by measuring minimum inhibitory effect at 0.2 uM measured after 10 days by phase contrast microscopy analysis; assay type: functional, cell-based; details: time 10.0 day
[14] = target: Proto-oncogene tyrosine-protein kinase receptor Ret (Homo sapiens) (UniProt P07949); assay: Inhibition of Ret (unknown origin) at 0.1 uM relative to control; values are per cent of control
[15] = target: Tyrosine-protein kinase JAK2 (Homo sapiens) (UniProt O60674); assay: Inhibition of JAK2 (unknown origin) at 0.1 uM relative to control; values are per cent of control
[16] = target: Fibroblast growth factor receptor 1 (Homo sapiens) (UniProt P11362); assay: Inhibition of FGFR1 (unknown origin) at 0.1 uM relative to control; values are per cent of control
Fibroblast growth factor receptor 1 (Homo sapiens), sequence (P11362 22-822 limits assumed): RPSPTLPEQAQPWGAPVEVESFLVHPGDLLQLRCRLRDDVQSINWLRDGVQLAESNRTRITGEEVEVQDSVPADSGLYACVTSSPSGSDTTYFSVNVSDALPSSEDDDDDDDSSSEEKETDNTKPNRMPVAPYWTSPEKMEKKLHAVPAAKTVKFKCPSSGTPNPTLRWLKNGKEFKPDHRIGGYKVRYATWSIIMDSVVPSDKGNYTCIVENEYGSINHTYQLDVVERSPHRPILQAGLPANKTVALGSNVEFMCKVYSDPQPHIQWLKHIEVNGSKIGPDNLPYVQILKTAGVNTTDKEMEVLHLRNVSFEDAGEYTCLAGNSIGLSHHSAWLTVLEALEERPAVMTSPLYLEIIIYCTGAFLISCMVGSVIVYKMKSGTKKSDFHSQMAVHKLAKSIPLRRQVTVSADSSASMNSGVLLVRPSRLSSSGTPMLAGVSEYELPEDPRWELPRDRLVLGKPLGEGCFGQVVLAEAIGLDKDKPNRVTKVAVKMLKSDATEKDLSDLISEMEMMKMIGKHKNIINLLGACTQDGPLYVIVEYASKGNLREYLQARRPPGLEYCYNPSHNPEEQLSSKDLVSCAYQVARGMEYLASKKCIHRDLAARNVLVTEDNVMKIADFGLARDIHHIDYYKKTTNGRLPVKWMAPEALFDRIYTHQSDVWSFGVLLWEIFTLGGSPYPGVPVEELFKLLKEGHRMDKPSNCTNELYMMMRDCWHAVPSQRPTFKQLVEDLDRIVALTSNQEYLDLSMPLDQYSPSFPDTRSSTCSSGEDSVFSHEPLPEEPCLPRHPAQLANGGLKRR

[17] = target: Tyrosine-protein kinase Lck (Homo sapiens) (UniProt P06239); assay: Inhibition of Lck (unknown origin) at 0.1 uM relative to control; values are per cent of control
Tyrosine-protein kinase Lck (Homo sapiens), sequence (P06239 2-509 limits assumed): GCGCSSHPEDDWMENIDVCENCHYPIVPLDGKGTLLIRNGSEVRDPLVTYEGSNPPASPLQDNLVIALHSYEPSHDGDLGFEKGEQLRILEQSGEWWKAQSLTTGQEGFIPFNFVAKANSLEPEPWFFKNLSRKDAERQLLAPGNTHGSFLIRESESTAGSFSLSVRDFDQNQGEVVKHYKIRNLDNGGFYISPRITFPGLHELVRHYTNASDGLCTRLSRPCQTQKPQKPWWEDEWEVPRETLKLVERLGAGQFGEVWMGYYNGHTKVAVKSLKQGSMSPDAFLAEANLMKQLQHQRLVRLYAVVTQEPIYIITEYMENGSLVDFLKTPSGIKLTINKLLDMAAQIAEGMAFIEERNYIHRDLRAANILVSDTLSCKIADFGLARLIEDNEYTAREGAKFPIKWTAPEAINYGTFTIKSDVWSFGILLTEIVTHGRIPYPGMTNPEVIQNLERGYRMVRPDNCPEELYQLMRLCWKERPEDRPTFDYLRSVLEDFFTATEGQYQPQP

[18] = target: Proto-oncogene tyrosine-protein kinase Src (Homo sapiens) (UniProt P12931); assay: Inhibition of c-SRC (unknown origin) at 0.1 uM relative to control; values are per cent of control
[19] = target: Angiopoietin-1 receptor (Homo sapiens) (UniProt Q02763); assay: Inhibition of Tie2 (unknown origin) at 0.1 uM relative to control; values are per cent of control
[20] = tested on: 4T1; assay: Induction of apoptosis in mouse 4T1 adherent cells at 0.1 to 1 uM incubated for 24 to 48 hrs by PI staining based flow cytometry analysis; assay type: functional, cell-based; details: dose 0.1-1 µM, time 24-48 hrs
[21] = tested on: 4T1; assay: Upregulation of FAK level in mouse 4T1 cells harbouring mCherry red fluorescent protein at 0.1 to 1 uM incubated for 1 hr by immunoblotting analysis; assay type: functional, cell-based; details: dose 0.1-1 µM
[22] = tested on: 4T1; assay: Induction of apoptosis in mouse 4T1 suspended cells at 0.1 to 0.4 uM incubated for 24 hrs by annexin V staining based flow cytometry analysis; assay type: functional; details: dose 0.1-0.4 µM
[23] = target: Mast/stem cell growth factor receptor Kit (Homo sapiens) (UniProt P10721); assay: Inhibition of c-kit (unknown origin) at 1 uM relative to control; values are per cent of control
[24] = organism: Homo sapiens; assay: Inhibition of CDK2/cyclin A (unknown origin) at 0.1 uM relative to control; values are per cent of control
[25] = target: Tyrosine-protein kinase ZAP-70 (Homo sapiens) (UniProt P43403); assay: Inhibition of ZAP-70 (unknown origin) at 0.1 uM relative to control; values are per cent of control
[26] = Metabolic stability in human liver microsomes assessed as half life; assay type: ADME, Microsome
[27] = tested on: 4T1; assay: Induction of apoptosis in mouse 4T1 cells assessed as increase in cell shrinkage at 0.4 to 1 uM measured after 2 days by phase contrast microscopy analysis; assay type: functional, cell-based; details: dose 0.4-1 µM, time 2.0 day
[28] = target: Fibroblast growth factor receptor 1 (Homo sapiens) (UniProt P11362); assay: Inhibition of FGFR1 (unknown origin) at 1 uM relative to control; values are per cent of control
[29] = tested on: 4T1; assay: Induction of cell cycle arrest in mouse 4T1 adherent cells assessed as accumulation at G0/G1 phase at 1 uM measured after 72 hrs by PI staining based flow cytometry analysis (reference value: 81.3%); assay type: functional
[30] = target: Tyrosine-protein kinase Fyn (Homo sapiens) (UniProt P06241); assay: Inhibition of Fyn (unknown origin) at 1 uM relative to control; values are per cent of control
[31] = target: Dual specificity mitogen-activated protein kinase kinase 1 (Homo sapiens) (UniProt Q02750); assay: Inhibition of MEK1 (unknown origin) at 0.1 uM relative to control; values are per cent of control

Question: Which “fold change (FC)” value [1] does the source give for `CNC(=O)c1ccccc1Nc1cc(Nc2ccc(N3CCOCC3)cc2OC)ncc1C(F)(F)F` [VS-4718] here?
Answer: Its value is roughly 3.

Question: What about the residual activity [2] of the same molecule?
Answer: The residual activity was 105%.

Question: And the Activity [3]?
Answer: Its Activity is 65.7%.

Question: And the residual activity [4]?
Answer: Its residual activity is 101%.

Question: And the Activity [5]?
Answer: Its Activity is “Active”.

Question: And the residual activity [6]?
Answer: Its residual activity is 16%.

Question: And the residual activity [7]?
Answer: Its residual activity is 110%.

Question: And the residual activity [8]?
Answer: The residual activity was 111%.

Question: And the residual activity [9]?
Answer: Its residual activity is 107%.

Question: What about the residual activity [10] of the same molecule?
Answer: The residual activity was 127%.

Question: What about the residual activity [11] of the same molecule?
Answer: Its residual activity is 67%.

Question: And the Activity [12]?
Answer: Its Activity is “Dose-Dependent Effect”.

Question: What about the inhibition [13] of the same molecule?
Answer: Its inhibition is “Active”.

Question: What about the residual activity [14] of the same molecule?
Answer: Its residual activity is 86%.

Question: What about the residual activity [15] of the same molecule?
Answer: The residual activity was 116%.

Question: What about the residual activity [16] of the same molecule?
Answer: Its residual activity is 98%.

Question: What about the residual activity [17] of the same molecule?
Answer: Its residual activity is 76%.

Question: What about the residual activity [18] of the same molecule?
Answer: The residual activity was 98%.

Question: And the residual activity [19]?
Answer: The residual activity was 97%.

Question: What about the Activity [20] of the same molecule?
Answer: Its Activity is “inactive”.

Question: What about the Activity [21] of the same molecule?
Answer: Its Activity is “Active”.

Question: What about the Activity [22] of the same molecule?
Answer: The Activity was 50%.

Question: And the residual activity [23]?
Answer: Its residual activity is 122%.

Question: And the residual activity [24]?
Answer: The residual activity was 91%.

Question: And the residual activity [25]?
Answer: Its residual activity is 70%.

Question: And the half-life [26]?
Answer: The half-life was 32 min.

Question: What about the Activity [27] of the same molecule?
Answer: The Activity was “Active”.

Question: And the residual activity [28]?
Answer: Its residual activity is 97%.

Question: And the Activity [29]?
Answer: Its Activity is 84.4%.

Question: What about the residual activity [30] of the same molecule?
Answer: The residual activity was 78%.

Question: What about the residual activity [31] of the same molecule?
Answer: Its residual activity is 79%.
